In patent US10047118B2, “C17-aryl substituted betulinic acid analogs” (priority 2014, dated 2018):

Tested on: recombinant NL4-3 virus (Renilla luciferase in nef, Gag P373S; NLRluc) in MT-2 cells
Experiment: HIV cell culture assay (luciferase reporter virus in MT-2 cells)
Format: cell-based
Conditions: NL43, read-out: WT EC50
Procedure: Step 2: To a solution of methyl 4-((1R,3aS,5aR,5bR,7aR,11aS,11bR,13aR,13bR)-5a,5b,8,8,11a-pentamethyl-3a-(1-methyl-1H-1,2,4-triazol-5-yl)-1-(prop-1-en-2-yl)-2,3,3a,4,5,5a,5b,6,7,7a,8,11,11a,11b,12,13,13a,13b-octadecahydro-1H-cyclopenta[a]chrysen-9-yl)benzoate (12.7 mg, 0.021 mmol) in THF (1 mL) and MeOH (0.25 mL) was added a solution of 1N lithium hydroxide (0.073 mL, 0.073 mmol). The reaction was stirred at 75° C. After 1 h, the reaction was cooled to rt and purified by reverse phase prep-HPLC using HPLC method 4 and dried in vacuo to give 4-((1R,3aS,5aR,5bR,7aR,11aS,11bR,13aR,13bR)-5a,5b,8,8,11a-pentamethyl-3a-(1-methyl-1H-1,2,4-triazol-5-yl)-1-(prop-1-en-2-yl)-2,3,3a,4,5,5a,5b,6,7,7a,8,11,11a,11b,12,13,13a,13b-octadecahydro-1H-cyclopenta[a]chrysen-9-yl)benzoic acid (9.1 mg, 0.015 mmol, 70.4% yield) as a white solid. LC/MS: m/e 596.3 (M+H)^+, 5.33 min (method 3). ^1H NMR (400 MHz, 1:1 CDCl3:METHANOL-d4) δ 7.89 (d, J=8.3 Hz, 2H), 7.78 (s, 1H), 7.17 (d, J=8.6 Hz, 2H), 5.30-5.22 (m, 1H), 4.77 (d, J=1.7 Hz, 1H), 3.93 (s, 3H), 3.23-3.05 (m, 2H), 2.33 (d, J=13.7 Hz, 1H), 2.11 (dd, J=17.2, 6.2 Hz, 1H), 2.04-1.96 (m, 1H), 1.93-1.80 (m, 2H), 1.72 (s, 3H), 1.68 (d, J=16.4 Hz, 1H), 1.63-1.58 (m, 1H), 1.55-1.30 (m, 10H), 1.28-1.19 (m, 2H), 1.18-1.08 (m, 2H), 1.04 (s, 3H), 0.97 (s, 3H), 0.90 (s, 6H), 0.82 (s, 3H). HIV cell culture assay—MT-2 cells and 293T cells were obtained from the NIH AIDS Research and Reference Reagent Program. MT-2 cells were propagated in RPMI 1640 media supplemented with 10% heat inactivated fetal bovine serum, […]. The 293T cells were propagated in DMEM media supplemented with 10% heat inactivated fetal bovine serum (FBS), 100 units/mL penicillin G and 100 μg/mL streptomycin. The proviral DNA clone of NL4-3 was obtained from the NIH AIDS Research and Reference Reagent Program. A recombinant NL4-3 virus, in which a section of the nef gene from NL4-3 was replaced with the Renilla luciferase gene, was used as a reference virus. In addition, residue Gag P373 was converted to P373S. Briefly, the recombinant virus was prepared by transfection of the altered proviral clone of NL4-3. Transfections were performed in 293T cells using LipofectAMINE PLUS from Invitrogen (Carlsbad, Calif.), according to manufacturer's instruction. The virus was titered in MT-2 cells using luciferase enzyme activity as a marker. Luciferase was quantitated using the Dual Luciferase kit from Promega (Madison, Wis.), with modifications to the manufacturer's protocol. The diluted Passive Lysis solution was pre-mixed with the re-suspended Luciferase Assay Reagent and the re-suspended Stop & Glo Substrate (2:1:1 ratio). Fifty (50) μL of the mixture was added to each aspirated well on assay plates and luciferase activity was measured immediately on a Wallac TriLux (Perkin-Elmer). Antiviral activities of inhibitors toward the recombinant virus were quantified by measuring luciferase activity in cells infected for 4-5 days with NLRluc recombinants in the presence serial dilutions of the inhibitor. Biological Data Key for EC50

**Q.** Which EC50 does the source give for `C=C(C)[C@@H]1CC[C@]2(c3ncnn3C)CC[C@]3(C)[C@H](CC[C@@H]4[C@@]5(C)CC=C(c6ccc(C(=O)O)cc6)C(C)(C)[C@@H]5CC[C@]43C)[C@@H]12` [Example 7, 4-((1R,3aS,5aR,5bR,7aR,11aS,11bR,13aR,13bR)-5a,5b,8,8,11a-pentamethyl-3a-(1-methyl-1H-1,2,4-triazol-5-yl)-1-(prop-1-en-2-yl)-2,3,3a,4,5,5a,5b,6,7,7a,8,11,11a,11b,12,13,13a,13b-octadecahydro-1H-cyclopenta[a]chrysen-9-yl)benzoic acid] here?
**A.** < 100 nM

**Q.** `C=C(C)[C@@H]1CC[C@]2(c3nc[nH]n3)CC[C@]3(C)[C@H](CC[C@@H]4[C@@]5(C)CC=C(c6ccc(C(=O)O)cc6)C(C)(C)[C@@H]5CC[C@]43C)[C@@H]12` [Example 5, 4-((1R,3aS,5aR,5bR,7aR,11aS,11bR,13aR,13bR)-5a,5b,8,8,11a-pentamethyl-1-(prop-1-en-2-yl)-3a-(1H-1,2,4-triazol-3-yl)-2,3,3a,4,5,5a,5b,6,7,7a,8,11,11a,11b,12,13,13a,13b-octadecahydro-1H-cyclopenta[a]chrysen-9-yl)benzoic acid] was tested. Which EC50 did it give?
**A.** < 100 nM

**Q.** How did the EC50 turn out when `C=C(C)[C@@H]1CC[C@]2(C#Cc3ccsc3-c3nnn[nH]3)CC[C@]3(C)[C@H](CC[C@@H]4[C@@]5(C)CC=C(c6ccc(C(=O)O)cc6)C(C)(C)[C@@H]5CC[C@]43C)[C@@H]12` [Example 2, 4-((1R,3aS,5aR,5bR,7aR,11aS,11bR,13 aR,13bR)-3a-((2-(1H-tetrazol-5-yl)thiophen-3-yl)ethynyl)-5a,5b,8,8,11a-pentamethyl-1-(prop-1-en-2-yl)-2,3,3a,4,5,5a,5b,6,7,7a,8,11,11a,11b,12,13,13a,13b-octadecahydro-1H-cyclopenta[a]chrysen-9-yl)benzoic acid] was run?
**A.** > 100 nM

**Q.** `C=C(C)[C@@H]1CC[C@]2(c3nnc(CN(C)C)o3)CC[C@]3(C)[C@H](CC[C@@H]4[C@@]5(C)CC=C(c6ccc(C(=O)O)cc6)C(C)(C)[C@@H]5CC[C@]43C)[C@@H]12` [Example 4, 4-((1R,3aS,5aR,5bR,7aR,11aS,11bR,13 aR,13bR)-3a-(5-((dimethylamino)methyl)-1,3,4-oxadiazol-2-yl)-5a,5b,8,8,11a-pentamethyl-1-(prop-1-en-2-yl)-2,3,3a,4,5,5a,5b,6,7,7a,8,11,11a,11b,12,13,13a,13b-octadecahydro-1H-cyclopenta[a]chrysen-9-yl)benzoic acid] was tested. Which EC50 did it give?
**A.** < 100 nM

**Q.** How did the EC50 turn out when `C=C(C)[C@@H]1CC[C@]2(c3nnco3)CC[C@]3(C)[C@H](CC[C@@H]4[C@@]5(C)CC=C(c6ccc(C(=O)O)cc6)C(C)(C)[C@@H]5CC[C@]43C)[C@@H]12` [Example 3, 4-((1R,3aS,5aR,5bR,7aR,11aS,11bR,13aR,13bR)-5a,5b,8,8,11a-pentamethyl-3a-(1,3,4-oxadiazol-2-yl)-1-(prop-1-en-2-yl)-2,3,3a,4,5,5a,5b,6,7,7a,8,11,11a,11b,12,13,13a,13b-octadecahydro-1H-cyclopenta[a]chrysen-9-yl)benzoic acid] was run?
**A.** < 100 nM

**Q.** For `C=C(C)[C@@H]1CC[C@]2(c3ncn(CCN4CCS(=O)(=O)CC4)n3)CC[C@]3(C)[C@H](CC[C@@H]4[C@@]5(C)CC=C(c6ccc(C(=O)O)cc6)C(C)(C)[C@@H]5CC[C@]43C)[C@@H]12` [Example 6, 4-((1R,3aS,5aR,5bR,7aR,11aS,11bR,13aR,13bR)-3a-(1-(2-(1,1-dioxidothiomorpholino)ethyl)-1H-1,2,4-triazol-3-yl)-5a,5b,8,8,11a-pentamethyl-1-(prop-1-en-2-yl)-2,3,3a,4,5,5a,5b,6,7,7a,8,11,11a,11b,12,13,13a,13b-octadecahydro-1H-cyclopenta[a]chrysen-9-yl)benzoic acid], which EC50 is on record?
**A.** < 100 nM

**Q.** For `C=C(C)[C@@H]1CC[C@]2(C#Cc3ccccc3C(=O)O)CC[C@]3(C)[C@H](CC[C@@H]4[C@@]5(C)CC=C(c6ccc(C(=O)O)cc6)C(C)(C)[C@@H]5CC[C@]43C)[C@@H]12` [Example 1, 2-(((1R,3aS,5aR,5bR,7aR,11aS,11bR,13aR,13bR)-9-(4-carboxyphenyl)-5a,5b,8,8,11a-pentamethyl-1-(prop-1-en-2-yl)-2,3,3a,4,5,5a,5b,6,7,7a,8,11,11a,11b,12,13,13a,13b-octadecahydro-1H-cyclopenta[a]chrysen-3a-yl)ethynyl)benzoic acid], which EC50 is on record?
**A.** 80 nM
